According to patent publication US8557526B2, “Synaptotagmin and collapsin response mediator protein as biomarkers for traumatic brain injury” (University of Florida Research Foundation, Inc., priority 2007, dated 2013):

What was measured:
[1] = tested on: primary cortical neurons; test: LDH release assay of NMDA induced neuronal cell injury; format: cell-based, rat; details: for protection against NMDA induced neuronal cell injury (LDH release): time course, protection within 6 hours
Method: LDH release assays were performed to determine the role of calpain and caspase inhibition on NMDA induced neuronal cell injury, and to draw a link with CRMP2 degradation. The release of LDH, normally present in the cytoplasm of neurons, into the cell culture media can be used as a measure of dying cells.

[2] = target: T1, recombinant human caspase-3 (Homo sapiens, UniProt P42574); test: In vitro caspase-3 digestion of naïve brain lysate (CRMP2 immunoblot); format: biochemical
T1 construct: purchased Chemicon
T1 sequence (P42574 29-175 limits assumed): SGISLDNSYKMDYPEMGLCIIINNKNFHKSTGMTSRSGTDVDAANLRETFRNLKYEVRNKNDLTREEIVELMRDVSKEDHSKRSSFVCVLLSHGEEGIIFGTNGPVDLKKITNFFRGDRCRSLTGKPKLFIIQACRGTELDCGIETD
T1 sequence (P42574 176-277 limits assumed): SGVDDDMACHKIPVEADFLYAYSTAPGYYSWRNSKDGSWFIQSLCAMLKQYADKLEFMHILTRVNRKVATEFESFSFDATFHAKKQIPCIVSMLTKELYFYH
Method: (§1) In vitro digestion of rat brain lysate (5 mg) was performed with the purified proteases human erythrocyte calpain-1, rat recombinant calpain-2 (Calbiochem, San Diego, Calif.) and recombinant human caspase-3 (Chemicon, Temecula, Calif.) in a buffer containing 100 mM Tris-HCl (pH 7.4) and 20 mM DTT. For calpain, 2 mM CaCl2 was also added, and then incubated at room temperature for 30 minutes. For caspase-3, samples were incubated at 37° C. for four hours. Protease reactions were stopped by the addition of calpain inhibitor SJA6017 to a concentration of 30 μM (Senju Pharmaceuticals, Kobe, Japan) or pan-caspase inhibitor Z-VAD to a concentration of 20 μM and a protease inhibitor cocktail solution.
(§2) This example was to determine whether CRMP2 proteolysis was calpain mediated following TBI, similar to the proteolysis found in cell culture after neurotoxin treatment. […] The complete inhibition of calpain and caspase activity was confirmed by parallel monitoring of calpain and caspase associated αII-spectrin degradation. […] Therefore, calpain produced the 55 kDa CRMP-2 BDP, while caspase-3 was ruled out.

[3] = tested on: primary cortical neurons; test: CRMP immunoblot after neurotoxin treatment of primary cortical neurons, with or without protease inhibitors; format: cell-based, rat; details: for STS-mediated generation of the 55 kDa CRMP2 BDP (effect of inhibitor): STS 0.5 μM challenge, primary cortical neurons; for formation of the 55 kDa CRMP2 BDP after NMDA treatment (effect of inhibitor pretreatment): pretreatment of primary cortical culture; for CRMP5 after neurotoxin / intact CRMP1 and CRMP4 after neurotoxin: NMDA 200 μM 6 hours, maitotoxin 3 nM 3 hours; for integrity of intact CRMP2 / appearance of 55 kDa BDP after neurotoxin: NMDA 200 μM, MTX, STS 0.5 μM, EDTA 5 mM
Method: Primary cortical neurons from first post-natal day Sprague-Dawley rat brains were plated on poly-L-lysine coated culture plates (Erie Scientific, Portsmouth, N.H., U.S.A.). Cells were dissociated with trypsin and DNase I, re-suspended in 10% plasma-derived horse serum (PDHS) in Dulbecco's modified Eagle's medium (DMEM), and plated on poly-L-lysine treated 35 mm (density: 3.0×10^6 cells per well) plates. Cells were allowed to grow in an atmosphere of 10% CO2 at 37° C. for three days and then treated with 1 μM 4-amino-6-hydrazino-7-β-D-ribofuranosyl-7H-pyrrolo (2,3-d)-pyrimidine-5-carboxamide (ARC) for two days. The ARC was removed and fresh 10% PDHS was added in DMEM, after which the cells were grown for an additional 10-14 days.
Protein concentrations of cell or tissue lysates were determined via Bio-Rad DC Protein Assay (Bio-Rad, Hercules, Calif.). Protein balanced samples were prepared for sodium dodecyl sulfate-polyacrylamide gel electrophoresis (SDS-PAGE) in a two-fold loading buffer containing 0.25 M Tris (pH 6.8), 0.2 M DTT, 8% SDS, 0.02% bromophenol blue, and 20% glycerol in distilled water. Samples were heated for 90 seconds at 90° C. and centrifuged for 2 minutes. Twenty micrograms (20 μg) of protein per lane were routinely resolved by SDS-PAGE on Tris-glycine gels for 2 hours at 130V. Following electrophoresis, separated proteins were laterally transferred to polyvinylidene fluoride (PVDF) membranes in a transfer buffer containing 39 mM glycine and 48 mM Tris-HCl (pH 8.3) 5% methanol at a constant voltage of 20 V for 2 hours at ambient temperature in a semi-dry transfer unit (Bio-Rad) by the semi-dry method.
Rat CRMP5 antibody (targeting to residues 369-564, Chemicon, Temecula, Calif.) was dialyzed with PBS using Slide-A-Lyzer MINI Dialysis Units, (Pierce, 3.5MWCO, 69550, Rockford, Ill.). Then CRMP5 was biotinylated by using EZ-link, sulfo-NHS-LC-LC-biotin by following the manufacture's instructions. Membranes were blotted either with anti-CRMP-1, or -4 (targeting residues 499-511, Chemicon), biotinylated-anti-CRMP5 antibodies or anti-CRMP2 (C4G) or a C-terminal anti-CRMP2 antibody raised against a synthetic peptides of residues 551-559), and developed with biotin and avidin-conjugated alkaline phosphatase (this step was skipped in CRMP5 blotting) and nitroblue tetrazolium and 5-bromo-4-chloro-3-indolyl phosphate. Quantitative evaluation of protein levels was performed via computer-assisted densitometric scanning (NIH Image J V.1.6 software).

[4] = tested on: rat cerebrocortical cultures; test: Synaptotagmin-1 fragmentation and vesicle organization in neurotoxin-challenged neuronal cultures; format: cell-based; details: for organization of synaptotagmin-coupled vesicles: cerebrocortical neurons and cerebellar granule neurons; for fragmentation of 65 kDa synaptotagmin-1 protein (33-36 kDa N-terminal fragments): oncotic, apoptotic and excitotoxic challenge
Method: Cerebrocortical cells harvested from 1-day old Sprague-Dawley rat brains were plated on poly-L-lysine coated on 6-well culture plates (Erie Scientific, Portsmouth, N.H., USA) at a density of 4.36×10^5 cells/mL. Cultures were maintained in Dulbecco's modified Eagle's medium (DMEM) with 10% fetal bovine serum in a humidified incubator in an atmosphere of 10% CO2 at 37° C. After 5 days in culture, the media were changed to DMEM with 5% horse serum. Subsequent media changes were performed three times a week. Experiments were performed on days 10 to 11 in vitro when astroglia had formed a confluent monolayer beneath morphologically mature neurons.
Cerebrocortical cultures (12-day-old) from above were washed three times with serum-free MEM.
After electrotransfer, blotting membranes were blocked for 1 hour at ambient temperature in 5% non-fat milk in TBS and 0.05% […] (TBST), then incubated in primary monoclonal synaptotagmin-1 antibody (BD Cat# 610434) in TBST with 5% milk at 1/50 dilution as recommended by the manufacturer at 4° C. overnight, followed by three washes with TBST and a 2 hour incubation at ambient temperature with a secondary antibody linked to biotinylated secondary antibody (Amersham, Cat # RPN1177v1) followed by a 30 min incubation with strepavidin-conjugated alkaline phosphatase (calorimetric method). Colorimetric development was performed with a one-step BCIP NBT reagent (KPL, Cat # 50-81-08). Molecular weights of intact synaptotagmin-1 protein and their potential breakdown products (BDPs) were assessed by running along side rainbow colored molecular weight standards (Amersham, Cat # RPN800V).

[5] = target: T2, calpain (Rattus norvegicus, UniProt Q07009); test: In vitro calpain digestion of naïve brain lysate (CRMP2 immunoblot); format: biochemical; details: pretreatment of naïve lysate
T2 construct: purchased Calbiochem
T2 sequence (Q07009 20-700 limits assumed): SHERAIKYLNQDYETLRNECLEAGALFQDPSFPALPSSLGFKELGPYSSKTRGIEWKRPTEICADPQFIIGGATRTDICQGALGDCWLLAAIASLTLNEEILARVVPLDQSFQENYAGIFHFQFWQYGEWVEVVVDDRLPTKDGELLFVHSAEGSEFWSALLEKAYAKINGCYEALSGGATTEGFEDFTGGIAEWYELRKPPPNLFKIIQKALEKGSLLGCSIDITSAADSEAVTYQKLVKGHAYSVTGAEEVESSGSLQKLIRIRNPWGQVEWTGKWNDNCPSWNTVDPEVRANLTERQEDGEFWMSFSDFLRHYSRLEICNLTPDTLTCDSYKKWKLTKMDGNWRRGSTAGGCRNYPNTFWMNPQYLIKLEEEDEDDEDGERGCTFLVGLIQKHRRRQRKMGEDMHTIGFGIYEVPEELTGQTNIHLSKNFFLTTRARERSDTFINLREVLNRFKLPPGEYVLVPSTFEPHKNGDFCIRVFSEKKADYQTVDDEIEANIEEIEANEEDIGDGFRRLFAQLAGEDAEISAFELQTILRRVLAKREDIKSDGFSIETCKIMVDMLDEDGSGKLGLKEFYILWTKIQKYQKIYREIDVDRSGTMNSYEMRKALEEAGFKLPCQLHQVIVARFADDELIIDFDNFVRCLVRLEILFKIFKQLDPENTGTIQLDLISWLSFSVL
T2 sequence (Q64537 88-270 partner limits assumed): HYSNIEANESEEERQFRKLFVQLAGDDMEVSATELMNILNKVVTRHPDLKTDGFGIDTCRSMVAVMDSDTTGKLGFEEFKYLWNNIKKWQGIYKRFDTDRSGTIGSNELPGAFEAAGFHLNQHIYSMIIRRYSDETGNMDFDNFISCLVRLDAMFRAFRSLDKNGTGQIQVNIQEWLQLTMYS
Method: as §1, §2

Compound	protection against NMDA induced neuronal cell injury (LDH release) ([1]; NMDA treatment)	STS-mediated generation of the 55 kDa CRMP2 BDP (effect of inhibitor) [3]	formation of the 55 kDa CRMP2 BDP after NMDA treatment (effect of inhibitor pretreatment) [3]	CRMP5 after neurotoxin [3]	intact CRMP1 and CRMP4 after neurotoxin [3]	integrity of intact CRMP2 / appearance of 55 kDa BDP after neurotoxin [3]	organization of synaptotagmin-coupled vesicles [4]	fragmentation of 65 kDa synaptotagmin-1 protein (33-36 kDa N-terminal fragments) [4]	other results
Z-VAD	no protection	offered no protection	not	–	–	–	–	–	66 kDa intact CRMP2 band after caspase-3 treatment with inhibitor [2]: did completely disappear
CN[C@H](CC(=O)O)C(=O)O [NMDA, N-Methyl-D-Asparate]	–	–	–	no remarkable change	Decrease of CRMP1 and CRMP4	marked reduction	extensive disorganization	fragmented by calpain into N-terminal fragments	neuron death (LDH release) ([1]; NMDA treatment, peaking at 24 hours): induced significant neuron death after a 3 hour induction; time of appearance of the 55 kDa CRMP2 BDP ([3]; NMDA 200 μM time course): ≤ 3 h
C=CC[C@H](C)[C@H](C)C[C@@H](O)[C@H](O)[C@@H]1CC[C@@]2(C)O[C@@]3(C)C[C@@]4(C)O[C@H]5/C=C\C[C@H]6O[C@H]7C[C@H]8O[C@H]9C[C@@]%10(C)O[C@@](C)([C@@H]%11CC[C@H]%12O[C@@]%13(C)C[C@H]%14O[C@@]%15(C)C[C@H]%16O[C@@]%17(C)C[C@@H](O)[C@H]([C@@H]%18O[C@H]%19[C@H](O)[C@@H](O)[C@H](C[C@H](O)C[C@@H](O)[C@@H]%20O[C@H]%21[C@H](O)[C@@H](O)[C@H]([C@@H]%22O[C@@H]%23[C@H](O)[C@H]%24O[C@H]%25C[C@H]%26O[C@@H](C[C@H](O)[C@@H](O)[C@H]%27O[C@H]%28[C@H](O)[C@H]%29O[C@H]%30C[C@H]%31O[C@H]%32[C@@H](O)[C@@H](O)[C@H]([C@H](C)[C@H](O)[C@H](C)CC[C@H](OS(=O)(=O)O)[C@H](O)[C@H](C)C[C@@H](O)C(=C)/C(C)=C/CO)O[C@@H]%32[C@H](O)C[C@]%31(C)O[C@@H]%30C[C@]%29(C)O[C@@H]%28C[C@H]%27O)[C@H](OS(=O)(=O)O)[C@H](O)[C@@H]%26O[C@@H]%25C[C@@H]%24O[C@H]%23[C@H](O)[C@H]%22O)O[C@H]%21C[C@H]%20O)O[C@H]%19C[C@H]%18O)O[C@@H]%17[C@H](O)[C@]%16(C)O[C@@H]%15CC[C@]%14(C)O[C@@H]%13C[C@@H]%12O%11)[C@H](O)C[C@@H]%10O[C@]9(C)CC[C@]8(C)O[C@]7(C)C[C@@H]6O[C@@H]5C[C@@H]4O[C@@H]3C[C@@H]2O1 [MTX, maitotoxin]	–	–	–	no remarkable change	Decrease of CRMP1 and CRMP4	–	extensive disorganization	fragmented by calpain into N-terminal fragments	–
CN[C@@H]1C[C@H]2O[C@@](C)([C@@H]1OC)n1c3ccccc3c3c4c(c5c6ccccc6n2c5c31)C(=O)NC4 [STS, staurosporine]	–	–	–	–	–	rapidly degraded to the 55 kDa BDP	–	fragmented by calpain into N-terminal fragments	–
CC(C)C[C@@H](C=O)NC(=O)[C@@H](NS(=O)(=O)c1ccc(F)cc1)C(C)C [SJA6017]	significant protection within 6 hours	effectively blocked	prevented the formation of the 55 kDa CRMP2 BDP	–	–	–	–	–	protection of neurons from excitotoxic injury after 12 hours ([1]; preincubation with inhibitor, after 12 hours): did not effectively protect; formation of the 55 kDa CRMP-2 BDP by calpain in naïve brain lysate (effect of inhibitor) [5]: blocked formation of the 55 kDa CRMP-2 BDP
